Legend:
yellow nutsedge = assay: Test C preemergence; type: in vivo, Cyperus esculentus; settings: Cyperus, pre-emergence, preemergence, scale 0 (no effect) to 100 (complete control), read-out: Nutsedge, Yellow plant response rating
In short: (§1)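 Sown in loam/sand → sprayed pre-emergence; or grown to 1–4 leaves in peat mix → sprayed post-emergence. Same solvent/surfactant formulation both ways. Greenhouse 13–15 d. Score 0–100 visual.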

giant foxtail [1] = assay: Test C preemergence; type: in vivo, Setaria faberii; settings: Setaria faberi, pre-emergence
In short: as §1

morningglory [2] = assay: Test C postemergence; type: in vivo, Ipomoea coccinea; settings: Ipomoea, post-emergence
In short: as §1

corn = assay: Test A postemergence; type: in vivo, Zea mays; settings: Zea mays, post-emergence, 240 h
In short: (§2)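 Visual 0–100 rating (100 = complete control) taken about 10 d post-treatment relative to untreated checks. Preemergence: directed soil spray on sown loam/sand pots. Postemergence: seedlings 2–10 cm, 1–2 leaf. Non-phytotoxic solvent formulation with surfactant.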

giant foxtail [3] = assay: Test A postemergence; type: in vivo, Setaria faberii; settings: Setaria faberi, post-emergence, 240 h
In short: as §2

velvetleaf [4] = assay: Test A postemergence; type: in vivo, Abutilon theophrasti; settings: Abutilon theophrasti, post-emergence, 240 h
In short: as §2

Heteranthera limosa = assay: Test B flooded paddy test; type: in vivo; settings: Heteranthera limosa, Flood, 250 g ai/ha; 0 to 100 scale where 0 is no effect and 100 is complete control; read-out: Plant response rating, Ducksalad
In short: (§3)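 Greenhouse flooded-pot test: compounds dosed into 3 cm standing water over 2-leaf plants, flood held constant. Rated visually after 13–15 days on 0–100 (complete control = 100); a dash marks no test result.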

pigweed = assay: Test C preemergence; type: in vivo, Amaranthus retroflexus; settings: Amaranthus retroflexus, pre-emergence
In short: as §1

barnyardgrass [5] = assay: Test A postemergence; type: in vivo, Echinochloa crus-galli; settings: Echinochloa crus-galli, post-emergence, 240 h
In short: as §2

wheat, winter = assay: Test C preemergence; type: in vivo, Triticum aestivum; settings: Triticum aestivum, pre-emergence
In short: as §1

barnyardgrass [6] = assay: Test B flooded paddy test; type: in vivo, Echinochloa crus-galli; settings: Echinochloa crus-galli; Flood, 250 g ai/ha; 0 to 100 scale where 0 is no effect and 100 is complete control; read-out: Plant response rating, Barnyardgrass
In short: as §3

galium = assay: Test C postemergence; type: in vivo, Galium aparine; settings: Galium, post-emergence
In short: as §1

chickweed = assay: Test C postemergence; type: in vivo, Stellaria media; settings: Stellaria media, post-emergence
In short: as §1

large (Lg) crabgrass = assay: Test A postemergence; type: in vivo, Digitaria sanguinalis; settings: Digitaria sanguinalis, post-emergence, 240 h
In short: as §2

morningglory [7] = assay: Test A postemergence; type: in vivo, Ipomoea spp.; settings: Ipomoea, post-emergence, 240 h
In short: as §2

velvetleaf [8] = assay: Test C preemergence; type: in vivo, Abutilon theophrasti; settings: Abutilon theophrasti, pre-emergence
In short: as §1

Structure (SMILES): N#Cc1cccc(Oc2ncc(Br)cn2)c1-n1cc(C(F)(F)F)cn1 [Compound 59, 3-[(5-bromo-2-pyrimidinyl)oxy]-2-[4-(trifluoromethyl)-1H-pyrazol-1-yl]benzonitrile]
- pest or weed control at 62 g/ha (yellow nutsedge; 62 g ai/ha): 65%
- pest or weed control at 125 g/ha (yellow nutsedge; 125 g ai/ha): 85%
- pest or weed control at 250 g/ha (yellow nutsedge; 250 g ai/ha): 90%
- pest or weed control at 62 g/ha (giant foxtail [1]; 62 g ai/ha, preemergence, scale 0 (no effect) to 100 (complete control), read-out: Foxtail, Giant plant response rating): 98%
- pest or weed control at 125 g/ha (giant foxtail [1]; 125 g ai/ha, preemergence, scale 0 (no effect) to 100 (complete control), read-out: Foxtail, Giant plant response rating): 100%
- pest or weed control at 250 g/ha (giant foxtail [1]; 250 g ai/ha, preemergence, scale 0 (no effect) to 100 (complete control), read-out: Foxtail, Giant plant response rating): 100%
- pest or weed control at 31 g/ha (giant foxtail [1]; Preemergence, 31 g ai/ha, scale 0 to 100, 0 no effect, 100 complete control, read-out: Plant response rating, Foxtail, Giant): 95%
- pest or weed control at 125 g/ha (morningglory [2]; 125 g ai/ha, postemergence, read-out: Plant response rating (0 to 100), Morningglory): 95%
- pest or weed control at 250 g/ha (morningglory [2]; 250 g ai/ha, postemergence, read-out: Plant response rating (0 to 100), Morningglory): 95%
- pest or weed control at 31 g/ha (morningglory [2]; Postemergence, 31 g ai/ha, scale 0 to 100 (0 no effect, 100 complete control), 13 to 15 days, read-out: Plant response rating, Morningglory): 80%
- pest or weed control at 62 g/ha (morningglory [2]; Postemergence, 62 g ai/ha, scale 0 to 100 (0 no effect, 100 complete control), read-out: Plant response rating, Morningglory): 85%
- Corn plant response rating (crop injury, 0 = no effect, 100 = complete kill) at 125 g/ha (corn; 125 g ai/ha, 0 to 100 scale where 0 is no effect and 100 is complete control): 60%
- plant injury at 500 g/ha (corn; 500 g ai/ha, 0 to 100 scale, 0 no effect, 100 complete control, read-out: Plant response rating Corn): 100%
- pest or weed control at 125 g/ha (giant foxtail [3]; 125 g ai/ha, 0 to 100 scale where 0 is no effect and 100 is complete control, read-out: Plant response rating, Foxtail, Giant): 100%
- pest or weed control at 500 g/ha (giant foxtail [3]; 500 g ai/ha, 0 to 100 scale, 0 no effect, 100 complete control, read-out: Plant response rating Foxtail, Giant): 100%
- pest or weed control at 125 g/ha (velvetleaf [4]; 125 g ai/ha, 0 to 100 scale where 0 is no effect and 100 is complete control, read-out: Plant response rating, Velvetleaf): 100%
- pest or weed control at 500 g/ha (velvetleaf [4]; 500 g ai/ha, 0 to 100 scale, 0 no effect, 100 complete control, read-out: Plant response rating Velvetleaf): 100%
- pest or weed control at 250 g/ha (Heteranthera limosa): 80%
- pest or weed control at 62 g/ha (pigweed; 62 g ai/ha, preemergence, scale 0 (no effect) to 100 (complete control), read-out: Pigweed plant response rating): 100%
- pest or weed control at 125 g/ha (pigweed; 125 g ai/ha, preemergence, scale 0 (no effect) to 100 (complete control), read-out: Pigweed plant response rating): 100%
- pest or weed control at 250 g/ha (pigweed; 250 g ai/ha, preemergence, scale 0 (no effect) to 100 (complete control), read-out: Pigweed plant response rating): 100%
- pest or weed control at 31 g/ha (pigweed; Preemergence, 31 g ai/ha, scale 0 to 100, 0 no effect, 100 complete control, read-out: Plant response rating, Pigweed): 100%
- pest or weed control at 125 g/ha (barnyardgrass [5]; 125 g ai/ha, 0 to 100 scale where 0 is no effect and 100 is complete control, read-out: Plant response rating, Barnyardgrass): 100%
- pest or weed control at 500 g/ha (barnyardgrass [5]; 500 g ai/ha, 0 to 100 scale, 0 no effect, 100 complete control, read-out: Plant response rating Barnyardgrass): 100%
- plant injury at 62 g/ha (wheat, winter; 62 g ai/ha, preemergence, scale 0 (no effect) to 100 (complete control), read-out: Wheat plant response rating): 50%
- plant injury at 125 g/ha (wheat, winter; 125 g ai/ha, preemergence, scale 0 (no effect) to 100 (complete control), read-out: Wheat plant response rating): 85%
- plant injury at 250 g/ha (wheat, winter; 250 g ai/ha, preemergence, scale 0 (no effect) to 100 (complete control), read-out: Wheat plant response rating): 90%
- plant injury at 31 g/ha (wheat, winter; Preemergence, 31 g ai/ha, scale 0 to 100, 0 no effect, 100 complete control, read-out: Plant response rating, Wheat): 0%
- pest or weed control at 250 g/ha (barnyardgrass [6]): 40%
- pest or weed control at 125 g/ha (galium; 125 g ai/ha, postemergence, read-out: Plant response rating (0 to 100), Galium): 90%
- pest or weed control at 250 g/ha (galium; 250 g ai/ha, postemergence, read-out: Plant response rating (0 to 100), Galium): 90%
- pest or weed control at 31 g/ha (galium; Postemergence, 31 g ai/ha, scale 0 to 100 (0 no effect, 100 complete control), 13 to 15 days, read-out: Plant response rating, Galium): 65%
- pest or weed control at 62 g/ha (galium; Postemergence, 62 g ai/ha, scale 0 to 100 (0 no effect, 100 complete control), read-out: Plant response rating, Galium): 80%
- pest or weed control at 125 g/ha (chickweed; 125 g ai/ha, postemergence, read-out: Plant response rating (0 to 100), Chickweed): 80%
- pest or weed control at 250 g/ha (chickweed; 250 g ai/ha, postemergence, read-out: Plant response rating (0 to 100), Chickweed): 98%
- pest or weed control at 31 g/ha (chickweed; Postemergence, 31 g ai/ha, scale 0 to 100 (0 no effect, 100 complete control), 13 to 15 days, read-out: Plant response rating, Chickweed): 40%
- pest or weed control at 62 g/ha (chickweed; Postemergence, 62 g ai/ha, scale 0 to 100 (0 no effect, 100 complete control), read-out: Plant response rating, Chickweed): 70%
- pest or weed control at 125 g/ha (large (Lg) crabgrass; 125 g ai/ha, 0 to 100 scale where 0 is no effect and 100 is complete control, read-out: Plant response rating, Crabgrass, Large): 100%
- pest or weed control at 500 g/ha (large (Lg) crabgrass; 500 g ai/ha, 0 to 100 scale, 0 no effect, 100 complete control, read-out: Plant response rating Crabgrass, Large): 100%
- pest or weed control at 125 g/ha (morningglory [7]; 125 g ai/ha, 0 to 100 scale where 0 is no effect and 100 is complete control, read-out: Plant response rating, Morningglory): 90%
- pest or weed control at 500 g/ha (morningglory [7]; 500 g ai/ha, 0 to 100 scale, 0 no effect, 100 complete control, read-out: Plant response rating Morningglory): 100%
- pest or weed control at 62 g/ha (velvetleaf [8]; 62 g ai/ha, preemergence, scale 0 (no effect) to 100 (complete control), read-out: Velvetleaf plant response rating): 100%
- pest or weed control at 125 g/ha (velvetleaf [8]; 125 g ai/ha, preemergence, scale 0 (no effect) to 100 (complete control), read-out: Velvetleaf plant response rating): 100%
- pest or weed control at 250 g/ha (velvetleaf [8]; 250 g ai/ha, preemergence, scale 0 (no effect) to 100 (complete control), read-out: Velvetleaf plant response rating): 100%
- pest or weed control at 31 g/ha (velvetleaf [8]; Preemergence, 31 g ai/ha, scale 0 to 100, 0 no effect, 100 complete control, read-out: Plant response rating, Velvetleaf): 100%

Source: US9695155B2, “Herbicidal substituted pyrimidinyloxy benzene compounds” (E. I. DU PONT DE NEMOURS AND COMPANY, priority 2013, dated 2017)
